Measured values: patent US9693556B2, “Herbicidal pyridazinone derivatives” (SYNGENTA LIMITED, priority 2011, dated 2017)

Assays:
Format in all cases: in vivo
[1] = tested on: Alopecurus myosuroides (ALOMY); assay: Post-emergence herbicidal glasshouse test on Alopecurus myosuroides; settings: post-emergence; 1000 g/h; evaluated after 13 days
Method in brief: (§1)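 Read-out: percentage herbicidal damage 13 days after spraying, given on a five-point scale (5=80-100%, 4=60-79%, 3=40-59%, 2=20-39%, 1=0-19%). Pots of standard soil; application at 1000 g/h, one day post-sowing for pre-emergence, eight days for post-emergence.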

[2] = tested on: Alopecurus myosuroides (ALOMY); assay: Pre-emergence herbicidal glasshouse test on Alopecurus myosuroides; settings: pre-emergence; 1000 g/h; evaluated after 13 days
Method in brief: as §1

Solanum nigrum (SOLNI) [3] = assay: Post-emergence herbicidal glasshouse test on Solanum nigrum; settings: post-emergence; 1000 g/h; evaluated after 13 days
Method in brief: as §1

[4] = tested on: Ipomoea hederacea (IPOHE); assay: Pre-emergence herbicidal glasshouse test on Ipomoea hederacea; settings: pre-emergence; 1000 g/h; evaluated after 13 days
Method in brief: as §1

[5] = tested on: Amaranthus retoflexus (AMARE); assay: Pre-emergence herbicidal glasshouse test on Amaranthus retoflexus; settings: pre-emergence; 1000 g/h; evaluated after 13 days
Method in brief: as §1

Solanum nigrum (SOLNI) [6] = assay: Pre-emergence herbicidal glasshouse test on Solanum nigrum; settings: pre-emergence; 1000 g/h; evaluated after 13 days
Method in brief: as §1

[7] = tested on: Amaranthus retoflexus (AMARE); assay: Post-emergence herbicidal glasshouse test on Amaranthus retoflexus; settings: post-emergence; 1000 g/h; evaluated after 13 days
Method in brief: as §1

Setaria faberi (SETFA) [8] = assay: Post-emergence herbicidal glasshouse test on Setaria faberi; settings: post-emergence; 1000 g/h; evaluated after 13 days
Method in brief: as §1

[9] = tested on: Echinochloa crus-galli (ECHCG); assay: Post-emergence herbicidal glasshouse test on Echinochloa crus-galli; settings: post-emergence; 1000 g/h; evaluated after 13 days
Method in brief: as §1

[10] = tested on: Ipomoea hederacea (IPOHE); assay: Post-emergence herbicidal glasshouse test on Ipomoea hederacea; settings: post-emergence; 1000 g/h; evaluated after 13 days
Method in brief: as §1

Setaria faberi (SETFA) [11] = assay: Pre-emergence herbicidal glasshouse test on Setaria faberi; settings: pre-emergence; 1000 g/h; evaluated after 13 days
Method in brief: as §1

[12] = tested on: Echinochloa crus-galli (ECHCG); assay: Pre-emergence herbicidal glasshouse test on Echinochloa crus-galli; settings: pre-emergence; 1000 g/h; evaluated after 13 days
Method in brief: as §1

| SMILES | POST Application ALOMY herbicidal damage (five point scale) [1] | PRE Application ALOMY herbicidal damage (five point scale) [2] | POST Application SOLNI herbicidal damage (five point scale) (Solanum nigrum (SOLNI) [3]) | PRE Application IPOHE herbicidal damage (five point scale) [4] | PRE Application AMARE herbicidal damage (five point scale) [5] | PRE Application SOLNI herbicidal damage (five point scale) (Solanum nigrum (SOLNI) [6]) | POST Application AMARE herbicidal damage (five point scale) [7] | POST Application SETFA herbicidal damage (five point scale) (Setaria faberi (SETFA) [8]) | POST Application ECHCG herbicidal damage (five point scale) [9] | POST Application IPOHE herbicidal damage (five point scale) [10] | PRE Application SETFA herbicidal damage (five point scale) (Setaria faberi (SETFA) [11]) | PRE Application ECHCG herbicidal damage (five point scale) [12] |
| --- | --- | --- | --- | --- | --- | --- | --- | --- | --- | --- | --- | --- |
| Cn1ncc(-c2ccc(S(C)(=O)=O)cc2Cl)c(O)c1=O [Compound 1.105] | 2 (2=20-39% damage) | 2 (2=20-39% damage) | 5 (5=80-100% damage) | 1 (1=0-19% damage) | 5 (5=80-100% damage) | 4 (4=60-79% damage) | 5 (5=80-100% damage) | 1 (1=0-19% damage) | 5 (5=80-100% damage) | 5 (5=80-100% damage) | 2 (2=20-39% damage) | 5 (5=80-100% damage) |
| COCc1ccc(-c2cnn(C)c(=O)c2O)c(S(C)(=O)=O)c1 [Compound 2.040] | 5 (5=80-100% damage) | 5 (5=80-100% damage) | 5 (5=80-100% damage) | 3 (3=40-59% damage) | 5 (5=80-100% damage) | 5 (5=80-100% damage) | 5 (5=80-100% damage) | 5 (5=80-100% damage) | 5 (5=80-100% damage) | 5 (5=80-100% damage) | 4 (4=60-79% damage) | 5 (5=80-100% damage) |
| Cc1ccc(F)cc1-c1cnn(C)c(=O)c1O [Compound 1.094] | 1 (1=0-19% damage) | 1 (1=0-19% damage) | 2 (2=20-39% damage) | 1 (1=0-19% damage) | 1 (1=0-19% damage) | 1 (1=0-19% damage) | 1 (1=0-19% damage) | 1 (1=0-19% damage) | 1 (1=0-19% damage) | 1 (1=0-19% damage) | 1 (1=0-19% damage) | 1 (1=0-19% damage) |
| Cn1ncc(-c2ccc(C(F)(F)F)cc2S(=O)(=O)N2CCOCC2)c(O)c1=O [Compound 2.049] | 1 (1=0-19% damage) | 1 (1=0-19% damage) | 5 (5=80-100% damage) | 4 (4=60-79% damage) | 5 (5=80-100% damage) | 5 (5=80-100% damage) | 5 (5=80-100% damage) | 1 (1=0-19% damage) | 5 (5=80-100% damage) | 5 (5=80-100% damage) | 2 (2=20-39% damage) | 5 (5=80-100% damage) |
| Cc1nc(C(C)F)ccc1-c1cnn(C)c(=O)c1O (stereo not drawn) [Compound 1.068] | 3 (3=40-59% damage) | 2 (2=20-39% damage) | 5 (5=80-100% damage) | 3 (3=40-59% damage) | 4 (4=60-79% damage) | 4 (4=60-79% damage) | 5 (5=80-100% damage) | 3 (3=40-59% damage) | 5 (5=80-100% damage) | 5 (5=80-100% damage) | 2 (2=20-39% damage) | 5 (5=80-100% damage) |
| COc1ccc(-c2cnn(C)c(=O)c2O)c(Cl)c1 [Compound 1.103] | 1 (1=0-19% damage) | 1 (1=0-19% damage) | 2 (2=20-39% damage) | 1 (1=0-19% damage) | 1 (1=0-19% damage) | 1 (1=0-19% damage) | 1 (1=0-19% damage) | 1 (1=0-19% damage) | 1 (1=0-19% damage) | 1 (1=0-19% damage) | 1 (1=0-19% damage) | 1 (1=0-19% damage) |
| Cn1ncc(-c2ccc(C(F)(F)F)nc2N2CCOCC2)c(O)c1=O [Compound 1.075] | 3 (3=40-59% damage) | 1 (1=0-19% damage) | 5 (5=80-100% damage) | 2 (2=20-39% damage) | 5 (5=80-100% damage) | 5 (5=80-100% damage) | 5 (5=80-100% damage) | 2 (2=20-39% damage) | 5 (5=80-100% damage) | 5 (5=80-100% damage) | 1 (1=0-19% damage) | 5 (5=80-100% damage) |
| Cn1ncc(-c2ccccc2C(F)(F)F)c(O)c1=O [Compound 1.116] | 1 (1=0-19% damage) | 2 (2=20-39% damage) | 5 (5=80-100% damage) | 1 (1=0-19% damage) | 5 (5=80-100% damage) | 3 (3=40-59% damage) | 4 (4=60-79% damage) | 2 (2=20-39% damage) | 2 (2=20-39% damage) | 4 (4=60-79% damage) | 2 (2=20-39% damage) | 1 (1=0-19% damage) |
| C=Cc1cccc(-c2c(C(F)(F)F)ccn(-c3cnn(C)c(=O)c3O)c2=O)c1 [Compound 7.011] | 1 (1=0-19% damage) | 2 (2=20-39% damage) | 5 (5=80-100% damage) | 2 (2=20-39% damage) | 5 (5=80-100% damage) | 5 (5=80-100% damage) | 5 (5=80-100% damage) | 3 (3=40-59% damage) | 5 (5=80-100% damage) | 3 (3=40-59% damage) | 2 (2=20-39% damage) | 1 (1=0-19% damage) |
